Measurements reported in patent publication US8088822B2, “Use of fenretinide or bioactive derivatives thereof and pharmaceutical compositions comprising the same” (priority 2008, dated 2012).
Where a SMILES comes first, the peptide text is derived from it. The star is where a group is joined. Cbz = O=C(OCc1ccccc1)*

Tests used:
[1] = test system: NB4 cells; assay: Antagonist assays, apoptosis of NB4 cells; type: cell-based; details: 100 μM vitamin C pre-treatment 2 hours, then 1 μM fenretinide 24 hours
[2] = test system: U937; assay: Apoptosis in AML cell line U937; type: cell-based; details: U937, within 48 hours, alone or combined
Description: (§1) 2×10^5 cultured cells were used for evaluating apoptosis using an ApoAlert Annexin V-FITC Apoptosis Kit (BD Biosciences). Cells were washed once by PBS, resuspended in 200 μl Annexin-V binding buffer, and then stained with Annexin V-FITC 5 μl, PI 10 μl for 15 min at room temperature in the dark. Cells were subsequently analyzed by flow cytometry.
There are two observations that drive us in further exploring alternative therapeutic combinations. As illustrated in Example 6, proteasome inhibitors can potentate fenretinide-induced apoptosis in leukemia. […] The apoptosis rates were quite low when treated alone within 48 hours (nearly 5%), and the number doubled when treated by fenretinide and MG132.

[3] = test system: K562; assay: Apoptosis in CML cell line K562; type: cell-based; details: 4 μM fenretinide, 0.25 μM imatinib, 0.1 μM MG132, alone or combined
Description: as §1

[4] = test system: HL60 cells; assay: MTT cell viability of quiescent and proliferating HL60 cells; type: cell-based; details: 0-10 μM, 24 and 48 h
Description: The cell viability was determined by 3-(4,5-dimethylthiazol-2-yl)-2,5-diphenyltetrazolium bromide (MTT) assay.
As previous case (Example 1), HL60 cells were chosen as serum deprived quiescent leukemic cell model obtained when incubated in RPMI 1640 without serum for 48 h. Serum-deprived quiescent leukemic cells and proliferating leukemic cells were then cultured in media containing 0.5% FBS, and treated with 0-10 μM 4-oxo-N-(4-hydroxyphenyl)retinamide for 24 and 48 h, respectively. The cell viability was test by MTT assay.

[5] = test system: CD34+CD38+ AML progenitor cells; assay: Apoptosis of AML progenitor cells; type: cell-based, human; details: 1-7.5 μM, 48 h
Description: (§2) Primitive AML and CML subpopulations (CD34^+ cells) were identified using CD34-PE in combination with CD38-APC, and followed by double-labeling with 7AAD and Annexin V antibodies for apoptosis assessment. The CD34^+ cells were first stained with antibodies against the surface markers CD34-PE and CD38-APC (Beckman Coulter, Fullerton, Calif.) and incubated at room temperature for 15 minutes. Cells were then washed with cold PBS and resuspended in 200 μL annexin V 1×binding buffer (10 mM HEPES/NaOH, pH 7.4, 140 mM NaCl, 2.5 mM CaCl2), 5 μL AnnexinV-FITC (BD Phanningen, San Diego, Calif.) and 7-aminoactinomycin (7-AAD, 0.25 mg/mL) (Molecular Probes, Eugene, Oreg.). Subsequently, the samples were incubated at room temperature for 15 minutes and analyzed by flow cytometry.
(§3) To determine whether 4-oxo-N-(4-hydroxyphenyl)retinamide like fenretinide could preferentially target primitive leukemia cells, CD34^+ cells are isolated from bone marrow specimens of AML patients and subjected to apoptosis assay upon the treatment with 1-7.5 μM 4-oxo-N-(4-hydroxyphenyl)retinamide for 48 h.

[6] = test system: CD34+CD38− AML stem cells; assay: Apoptosis of AML stem cells; type: cell-based, human; details: 1-7.5 μM, 48 h
Description: as §2, §3

[7] = test system: CML CD34+ cells; assay: Colony forming assay in primary CML CD34+ cells; type: cell-based, human; details: 0.25 μM imatinib, 4 μM fenretinide or both, 14 days
Source text: Fresh bone marrow (BM) cells were obtained from 38 patients with CML and 5 non-leukemic donors, 25 AML, 17 ALL, and 8 normal specimens with informed consent according to the Declaration of Helsinki. Approval was obtained from Institutional Review Board at the School of Medicine in Shanghai Jiao Tong University. BM mononuclear cells were isolated by Ficoll density gradient centrifugation (Shanghai Second Reagent Factory, Shanghai, China). CD34^+ Cell were selected using EasySep® Human CD34 Positive Selection kit (Stem Cell Technologies, Vancouver, BC, Canada) according to the manufacturer's instructions. […] The CD34^+ cells were cultured in a serum-free medium (StemPro 34; Gibco BRL, Gaithersburg, Md.) supplemented with growth factors (PeproTech, London, United Kingdom) (20). The growth factors consisted of GM-CSF (200 pg/mL), G-CSF (1 ng/mL); SCF (200 pg/mL); LIF (50 pg/mL), MIP-1α (200 pg/mL) and IL-6 (1 ng/mL).
A quantity of 1000 CD34^+ cells were plated in semisolid methylcellulose-based media (Methocult H4434: Stem Cell Technologies, Vancouver, BC, Canada). After incubation at 37° C. in a fully humidified atmosphere of 5% CO2 for 14 days, granulocyte macrophage-colony-forming units (CFU-GM), erythroid burst-forming units (BFU-E), granulocyte, erythrocyte and monocyte, megakaryocyte-colony-forming units (CUF-GEMM) were counted. Only clusters with >50 cells were counted as a colony.
We further performed study to examine the effects of fenretinide on colony forming in primary CML cells derived from 38 bone marrow specimens of CML patients (TABLE 1). First, CML CD34^+ Cells were isolated using EasySep® Human CD34 Positive Selection kit (Stem Cell Technologies, Vancouver, BC, Canada). Upon treated with 2 μM and 4 μM fenretinide, colony forming assays were performed respectively on granulocyte macrophage-colony-forming units (CFU-GM), erythroid burst-forming units (BFU-E), granulocyte, erythrocyte and monocyte, megakaryocyte-colony-forming units (CFU-GEMM).

[8] = test system: patients with CML; details: patients with CML treated with imatinib; cited from earlier work
[9] = test system: MKN45; assay: Apoptosis in gastric tumor cell line MKN45 (Rh123/PI, FACS); type: cell-based; details: MKN45, 48 hours; 4 μM fenretinide, 5 μM Tet, alone or co-treatment
Description: Loss of MTP was evaluated through rhodamine 123 (Rh123) and propidium iodide (PI) staining. 2×10^5 cells were washed by PBS and incubated with 1 μg/ml Rh123 at 37° C. for 30 min. After washed by PBS, 10 μl PI was added to cells for 15 min at room temperature in the dark. Fluorescence emission at 530 nm (representing R123 retention as a function of MTP) was measured with flow cytometry.
Fenretinide induces intracellular ROS and ER stress to activate series of molecular events including apoptotic pathway and such anti-apoptotic pathways as NF-κB cascade. NF-κB can mediate the progression of inflammation-related cancer. […] Unlike fenretinide, Tet is the well-known anti-cancer and anti-inflammation drugs via inhibiting the activity of NF-κB. For example, Tet, as the main effective component of Stephenia tetrandra S Moore, has bioactivities in reversing MDR (multidrug resistance), blocking calcium ion channel and so on. […] FIGS. 19A and 19B show synergistic induction of apoptosis by fenretinide and Tet, as evaluated by Rh123/PI double stain using FACS. […] Through annexin-V/PI double staining, synergistic apoptosis profiles of fenretinide/tetrandrine co-treated MKN45 and SGC7901 cells were also observed (see FIGS. 19C and 19D).

[10] = test system: HL60 cells; assay: Mitochondrial transmembrane potential (MTP) assay, Rh123/PI, HL60 cells; type: cell-based; details: quiescent HL60 cells; 20 μM IDA or 5 μM Ara-C
Description: (§4) HL60 cells were cultured in RPMI 1640 supplemented (i) with or (ii) without 10% fetal bovine serum to obtain proliferating and quiescent leukemia cells respectively. Serum-deprived quiescent leukemic cells and proliferating leukemic cells were then cultured in media containing 0.5% FBS, and treated with 1 μM and 2.5 μM fenretinide, and also with chemotherapeutics as controls, 20 μM idarubicin (IDA) and 5 μM cytarabine (Ara-C).
(§5) To examine the effects of fenretinide on proliferating and quiescent leukemia cells, HL60 cells were chosen as serum deprived quiescent leukemic cell model obtained when incubated in RPMI 1640 without serum for 48 h, with G0/G1 phase cells (being in quiescent state) accounting up to 59.9%. Serum-deprived quiescent leukemic cells and proliferating leukemic cells were then cultured in media containing 0.5% FBS, and treated with 1 μM and 2.5 μM fenretinide, and also with chemotherapeutics as controls, 20 μM idarubicin (IDA) and 5 μM cytarabine (Ara-C). […] Fenretinide induces intracellular production of ROS, lowers mitochondrial transmembrane potential (MTP), and eventually leads to apoptosis in a variety of malignancies. We measured MTP induced by fenretinide in proliferating and quiescent HL60 cells, as examined through rhodamine 123 and propidium iodide staining and followed by flow cytometry analysis. […] We further measured intracellular ROS abundance induced by fenretinide. […] After incubation with 1 μM and 2.5 μM fenretinide for 3 h, the ROS level of proliferating cells increased by 1.77 and 2.6 fold, respectively.

[11] = test system: U937; assay: Growth inhibition and combination index in AML cell line U937; type: cell-based; details: U937, single agent
Description: The combination Index (CI) was used to test the combination effect of fenretinide and Ara-C on growth inhibition in AML cell line U937. The CI was calculated according to the classic isobologram equation: CI=d1/D1+d2/D2. In this equation, D1 and D2 represent the doses of drug 1 and drug 2 alone, required to produce x % effect, and d1 and d2 are the doses of drugs 1 and 2 in combination required to produce the same effect. And CI<1, CI>1 and CI=1 represent the synergism, […], respectively.

[12] = test system: HL60 cells; assay: Annexin V apoptosis assay in proliferating and serum-deprived quiescent HL60 cells; type: cell-based; details: 20 μM IDA
Description: as §4, §1, §5

SMILES: O=C1O[C@H]([C@@H](O)CO)C([O-])=C1O.[Na+] [vitamin C, ascorbic acid sodium salt]
- effect on fenretinide-induced apoptosis [1]: completely abrogated

SMILES: CC(C)C[C@@H](C=O)NC(=O)[C@H](CC(C)C)NC(=O)[C@H](CC(C)C)NC(=O)OCc1ccccc1 [MG132, N-[(phenyl-methoxy)-carbonyl]-L-leucyl-N-[(1S)-1-formyl-3-methylbutyl]-L-Leucinamide] (Cbz-Leu-Leu-Leu-aldehyde)
- apoptosis rate [2]: ~5%
- apoptosis rate [3]: 2.51%

SMILES: CC1=C(/C=C/C(C)=C/C=C/C(C)=C/C(=O)Nc2ccc(O)cc2)C(C)(C)CCC1=O [4-oxo-N-(4-hydroxyphenyl)retinamide]
- sensitivity (cell viability, MTT) of serum-deprived quiescent versus proliferating HL60 cells [4]: more sensitive
- apoptosis of CD34+CD38+ AML progenitor cells [5]: dose-dependent manner
- apoptosis of CD34+CD38− AML stem cells [6]: dose-dependent manner

SMILES: Cc1ccc(NC(=O)c2ccc(CN3CCN(C)CC3)cc2)cc1Nc1nccc(-c2cccnc2)n1 [imatinib, 4-[(4-methylpiperazin-1-yl)methyl]-N-[4-methyl-3-[(4-(3-pyridinyl)-pyrimidin-2-yl)amino]phenyl]benzamide]
- GFU-GEMM formed by the more primitive progenitor cells [7]: could be detected
- apoptosis rate [3]: 12.8%
- complete cytogenetic response (CCR) [8]: ~87%

SMILES: COc1ccc2cc1Oc1ccc(cc1)C[C@H]1c3cc(c(OC)cc3CCN1C)Oc1c(OC)c(OC)cc3c1[C@H](C2)N(C)CC3 [Tet, tetrandrine]
- apoptosis [9]: 15.8%

SMILES: Nc1ccn([C@@H]2O[C@H](CO)[C@@H](O)[C@@H]2O)c(=O)n1 [Ara-C, cytosine arabinoside]
- change in MTP [10]: little change in MTP
- dose alone required for growth inhibition rate of 65.47% [11]: 0.091 µM
- apoptosis rate [2]: ~5%

SMILES: CC(=O)[C@]1(O)Cc2c(O)c3c(c(O)c2[C@@H](O[C@H]2C[C@H](N)[C@H](O)[C@H](C)O2)C1)C(=O)c1ccccc1C3=O [IDA, idarubicin]
- apoptosis rate ([12]; proliferating HL60 cells): 88.7%
- apoptosis rate ([12]; quiescent HL60 cells): 29.1%
- change in MTP [10]: little change in MTP
